Reference: patent US20120065126A1, “Pharmaceutical Compositions Containing Antifungal Peptides” (BASF SE, priority 2009, published 2012)

Key:
[1] = test system: Malassezia furfur; assay: Incubation times between 5 minutes and 1 hour (CFU); assay type: cell-based
Method: The studies described hereinafter were conducted on the Malassezia furfur strain DSM 6170.
For this purpose, the concentrations 100 μM, 200 μM and 500 μM of P18 peptide and of zinc pyrithione as a control substance were used in the experiment. The experiments were conducted as follows:
The growth test was effected as follows: a shake culture containing M472 Pityrosporum medium was inoculated with M. furfur and incubated with shaking at 30° C. and 200 rpm overnight.
A 96-well microtiter plate was filled with 100 μl per well of M472 Pityrosporum medium and inoculated with M. furfur suspension from the overnight culture. The M. furfur suspension was adjusted at the start of the experiment to an optical density, measured at 600 nm, of 0.1.
The following growth was compared: • M. furfur suspension and addition of P18 peptide with a final concentration of 100 μM, plating after 5 minutes, 10 minutes, 20 minutes and 60 minutes • M. furfur suspension and addition of P18 peptide with a final concentration of 200 μM, plating after 5 minutes, 10 minutes, 20 minutes and 60 minutes • M. furfur suspension and addition of P18 peptide with a final concentration of 500 μM, plating after 5 minutes, 10 minutes, 20 minutes and 60 minutes • M. furfur suspension and addition of zinc pyrithione with a final concentration of 100 μM, plating after 5 minutes, 10 minutes, 20 minutes and 60 minutes • M. furfur suspension and addition of zinc pyrithione with a final concentration of 200 μM, plating after 5 minutes, 10 minutes, 20 minutes and 60 minutes • M. furfur suspension and addition of zinc pyrithione with a final concentration of 500 μM, plating after 5 minutes, 10 minutes, 20 minutes and 60 minutes
The microtiter plate was incubated with shaking at 30°.
After the incubation times specified, the colony forming units (CFU) were determined by streaking 50 μl of each of the suspensions and, after incubation over the course of 6 days, counting the colonies. The CFU was determined in order to rule out any influence of the biphasic medium, and also the growth form of M. furfur, on the optical density. The experiments were repeated independently of one another.

[2] = test system: Candida albicans (DSM 11948); assay: Short-term effect (CFU); assay type: cell-based
Method: For this purpose, the procedure was as follows.
YM growth medium (Becton, Dickinson and Company, Sparks, USA) 3 g of yeast extract 3 g of malt extract 5 g of peptone 10 g of dextrose make up to 1 liter, set pH 6.2
The growth test was effected as follows: 5 ml of YM medium were inoculated with C. albicans and incubated at 30° C. and 200 rpm overnight.
1.5 ml reaction vessels were filled with 1 ml each of YM medium and inoculated with the C. albicans suspension of the overnight culture. The resulting C. albicans suspension was set at the start of the experiment to an optical density, measured at 600 nm, of 0.1. The concentration of the peptide solution in water or ZPT solution (zinc pyrithione, >96%, Sigma Aldrich) dissolved in DMSO was 2% (w/w).
The following growth was compared: • C. albicans suspension and addition of P18 peptide with a final concentration in the 1.5 ml reaction vessel of 50 ppm after 5 minutes, 10 minutes, 20 minutes and 60 minutes • C. albicans suspension and addition of P18 peptide with a final concentration in the 1.5 ml reaction vessel of 100 ppm after 5 minutes, 10 minutes, 20 minutes and 60 minutes • C. albicans suspension and addition of P18 peptide with a final concentration in the 1.5 ml reaction vessel of 200 ppm after 5 minutes, 10 minutes, 20 minutes and 60 minutes • C. albicans suspension and addition of P18 peptide with a final concentration in the 1.5 ml reaction vessel of 500 ppm after 5 minutes, 10 minutes, 20 minutes and 60 minutes • C. albicans suspension and addition of P18 peptide with a final concentration in the 1.5 ml reaction vessel of 1000 ppm after 5 minutes, 10 minutes, 20 minutes and 60 minutes • C. albicans suspension and addition of ZPT with a final concentration in the 1.5 ml reaction vessel of 50 ppm after 5 minutes, 10 minutes, 20 minutes and 60 minutes • C. albicans suspension and addition of ZPT with a final concentration in the 1.5 ml reaction vessel of 100 ppm after 5 minutes, 10 minutes, 20 minutes and 60 minutes • C. albicans suspension and addition of ZPT with a final concentration in the 1.5 ml reaction vessel of 200 ppm after 5 minutes, 10 minutes, 20 minutes and 60 minutes • C. albicans suspension and addition of ZPT with a final concentration in the 1.5 ml reaction vessel of 500 ppm after 5 minutes, 10 minutes, 20 minutes and 60 minutes • C. albicans suspension and addition of ZPT with a final concentration in the 1.5 ml reaction vessel of 1000 ppm after 5 minutes, 10 minutes, 20 minutes and 60 minutes
The 1.5 ml reaction vessels were incubated at room temperature.
After the incubation times specified, the colony forming units (CFU) were determined by streaking 1 μl of each of the suspensions diluted in 20 μl of YM medium and, after incubation for 2 days, counting the colonies.

| Substance | Colony forming units after incubation time specified ([1]; 100 μM, 5 minutes) | Colony forming units after incubation time specified ([1]; 100 μM, 10 minutes) | Colony forming units after incubation time specified ([1]; 100 μM, 20 minutes) | Colony forming units after incubation time specified ([1]; 100 μM, 60 minutes) | Colony forming units after incubation time specified ([1]; 200 μM, 5 minutes) | Colony forming units after incubation time specified ([1]; 200 μM, 10 minutes) | Colony forming units after incubation time specified ([1]; 200 μM, 20 minutes) | Colony forming units after incubation time specified ([1]; 200 μM, 60 minutes) | Colony forming units after incubation time specified ([1]; 500 μM, 5 minutes) | Colony forming units after incubation time specified ([1]; 500 μM, 10 minutes) | Colony forming units after incubation time specified ([1]; 500 μM, 20 minutes) | Colony forming units after incubation time specified ([1]; 500 μM, 60 minutes) | Colony forming units after the incubation time specified ([2]; 50 ppm, 5 minutes) | Colony forming units after the incubation time specified ([2]; 50 ppm, 10 minutes) | Colony forming units after the incubation time specified ([2]; 50 ppm, 20 minutes) | Colony forming units after the incubation time specified ([2]; 50 ppm, 60 minutes) | Colony forming units after the incubation time specified ([2]; 100 ppm, 5 minutes) | Colony forming units after the incubation time specified ([2]; 100 ppm, 10 minutes) | Colony forming units after the incubation time specified ([2]; 100 ppm, 20 minutes) | Colony forming units after the incubation time specified ([2]; 100 ppm, 60 minutes) | further results |
| --- | --- | --- | --- | --- | --- | --- | --- | --- | --- | --- | --- | --- | --- | --- | --- | --- | --- | --- | --- | --- | --- |
| H-KWKLFKKIPKFLHLAKKF-NH2 [P18, H-KWKLFKKIPKFLHLAKKF-NH2] | >1000 CFU | >1000 CFU | 604 CFU | 149 ± 60 CFU | >1000 CFU | >1000 CFU | >1000 CFU | 52 ± 16 CFU | >1000 CFU | 398 ± 290 CFU | 26 ± 6 CFU | 1 ± 1 CFU | 986 ± 280 CFU | 944 ± 209 CFU | 954 ± 14 CFU | 518 ± 82 CFU | 718 ± 116 CFU | 628 ± 112 CFU | 454 ± 127 CFU | 25 ± 0 CFU | Colony forming units after the incubation time specified ([2]; 200 ppm, 5 minutes): 242 ± 122 CFU; Colony forming units after the incubation time specified ([2]; 200 ppm, 10 minutes): 72 ± 2 CFU; Colony forming units after the incubation time specified ([2]; 200 ppm, 20 minutes): 29 ± 2 CFU; Colony forming units after the incubation time specified ([2]; 200 ppm, 60 minutes): 1 ± 1 CFU; Colony forming units after the incubation time specified ([2]; 500 ppm, 5 minutes): 39 ± 1 CFU; Colony forming units after the incubation time specified ([2]; 500 ppm, 10 minutes): 5 ± 6 CFU; Colony forming units after the incubation time specified ([2]; 500 ppm, 20 minutes): 1 ± 1 CFU; Colony forming units after the incubation time specified ([2]; 500 ppm, 60 minutes): 0 ± 0 CFU; Colony forming units after the incubation time specified ([2]; 1000 ppm, 5 minutes): 10 ± 2 CFU; Colony forming units after the incubation time specified ([2]; 1000 ppm, 10 minutes): 1 ± 2 CFU; Colony forming units after the incubation time specified ([2]; 1000 ppm, 20 minutes): 0 ± 0 CFU; Colony forming units after the incubation time specified ([2]; 1000 ppm, 60 minutes): 0 ± 0 CFU |
| zinc pyrithione [ZPT] | >1000 CFU | >1000 CFU | >1000 CFU | >1000 CFU | >1000 CFU | >1000 CFU | >1000 CFU | >1000 CFU | >1000 CFU | >1000 CFU | >1000 CFU | >1000 CFU | 830 ± 190 CFU | 1096 ± 51 CFU | 986 ± 20 CFU | 982 ± 93 CFU | 809 ± 100 CFU | 1048 ± 74 CFU | 806 ± 105 CFU | 762 ± 212 CFU | Inhibition in words ([2]; 50-1000 ppm, up to 60 minutes): no significant inhibition; Colony forming units after the incubation time specified ([2]; 200 ppm, 5 minutes): 676 ± 204 CFU; Colony forming units after the incubation time specified ([2]; 200 ppm, 10 minutes): 906 ± 331 CFU; Colony forming units after the incubation time specified ([2]; 200 ppm, 20 minutes): 882 ± 190 CFU; Colony forming units after the incubation time specified ([2]; 200 ppm, 60 minutes): 711 ± 125 CFU; Colony forming units after the incubation time specified ([2]; 500 ppm, 5 minutes): 863 ± 35 CFU; Colony forming units after the incubation time specified ([2]; 500 ppm, 10 minutes): 832 ± 192 CFU; Colony forming units after the incubation time specified ([2]; 500 ppm, 20 minutes): 710 ± 71 CFU; Colony forming units after the incubation time specified ([2]; 500 ppm, 60 minutes): 617 ± 134 CFU; Colony forming units after the incubation time specified ([2]; 1000 ppm, 5 minutes): 806 ± 20 CFU; Colony forming units after the incubation time specified ([2]; 1000 ppm, 10 minutes): 700 ± 153 CFU; Colony forming units after the incubation time specified ([2]; 1000 ppm, 20 minutes): 550 ± 88 CFU; Colony forming units after the incubation time specified ([2]; 1000 ppm, 60 minutes): 482 ± 69 CFU |
